target: human TRPM8 (Homo sapiens (Human), UniProt Q7Z2W7); assay: TRPM8 inhibition assay (menthol-induced calcium influx, FDSS); format: cell-based; conditions: HEK293 cells stably expressing human TRPM8; 100 μmol/L menthol; Fura-2AM calcium signal; read-out: TRPM8 Blocking Test (IC50/nmol/L)
Procedure: The functional activity of a test compound was determined by measuring change in intracellular calcium concentration using a calcium sensitive fluorescent dye. The change in fluorescent signal was measured by the cell imaging technology by Hamamatsu Photonics's Functional Drug Screening System (FDSS).
HEK293 cells stably expressing human TRPM8 were grown in a flask. On assay day, the culture medium was removed from the flask, and cells were washed with phosphate-buffered saline (PBS) and harvested with PBS containing 2 mmol/L of ethylenediaminetetraacetic acid disodium salt (EDTA-2Na). […] Subsequently, suspended 20,000 to 50,000 cells per well were incubated with a test compound (at varying concentrations) in each well at 37° C. for 20 minutes. Change in intracellular calcium concentration evoked by 100 μmol/L of menthol was measured for 2 minutes using FDSS. […] The concentration-response curve was generated using the average of quadruplicate wells for each data point.

Sequence of human TRPM8 (Q7Z2W7 whole entry): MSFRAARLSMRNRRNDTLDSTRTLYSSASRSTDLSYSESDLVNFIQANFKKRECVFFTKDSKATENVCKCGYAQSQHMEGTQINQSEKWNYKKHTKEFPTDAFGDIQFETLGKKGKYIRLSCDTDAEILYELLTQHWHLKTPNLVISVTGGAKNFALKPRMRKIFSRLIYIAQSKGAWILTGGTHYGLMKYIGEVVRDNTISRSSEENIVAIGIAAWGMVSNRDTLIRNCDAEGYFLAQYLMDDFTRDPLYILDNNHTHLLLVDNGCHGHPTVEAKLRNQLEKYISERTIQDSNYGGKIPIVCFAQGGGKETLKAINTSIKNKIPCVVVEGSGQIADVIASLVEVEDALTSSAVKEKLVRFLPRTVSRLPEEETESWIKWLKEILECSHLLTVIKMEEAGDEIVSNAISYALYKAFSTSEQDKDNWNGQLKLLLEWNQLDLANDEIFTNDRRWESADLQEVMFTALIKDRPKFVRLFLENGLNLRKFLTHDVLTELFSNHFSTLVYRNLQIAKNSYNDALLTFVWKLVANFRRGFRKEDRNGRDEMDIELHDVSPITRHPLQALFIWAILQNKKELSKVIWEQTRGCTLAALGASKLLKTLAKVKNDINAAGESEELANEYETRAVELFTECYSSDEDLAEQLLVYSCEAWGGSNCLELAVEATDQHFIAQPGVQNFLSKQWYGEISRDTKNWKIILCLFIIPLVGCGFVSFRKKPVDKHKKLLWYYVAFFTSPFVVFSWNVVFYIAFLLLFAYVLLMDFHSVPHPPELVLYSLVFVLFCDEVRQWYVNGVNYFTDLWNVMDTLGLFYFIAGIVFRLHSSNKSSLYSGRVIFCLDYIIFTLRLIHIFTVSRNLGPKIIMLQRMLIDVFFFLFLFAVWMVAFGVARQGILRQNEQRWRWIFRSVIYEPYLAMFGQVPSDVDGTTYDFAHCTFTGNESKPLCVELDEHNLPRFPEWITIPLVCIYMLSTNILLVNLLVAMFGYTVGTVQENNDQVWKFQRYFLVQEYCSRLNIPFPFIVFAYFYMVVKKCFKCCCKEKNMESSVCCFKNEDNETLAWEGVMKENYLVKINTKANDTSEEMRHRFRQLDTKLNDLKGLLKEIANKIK

SMILES | IC50
O=c1[nH]c(-c2ccc(S(=O)(=O)N(Cc3ccc(OC(F)(F)F)cc3)c3ncc4ccccc4c3C3CC3)nc2)no1 [Example 35] | 9.6 nmol/L
Cc1cc(S(=O)(=O)N(Cc2ccc(C(F)(F)F)cn2)c2ncc3ccccc3c2C2CC2)ccc1C(=O)O [Example 37, 4-[((4-cyclopropylisoquinolin-3-yl){[5-(trifluoromethyl)pyridin-2-yl]methyl}amino)sulfonyl]-2-methylbenzoic acid] | 9.5 nmol/L
Cc1cc(C(=O)O)ccc1S(=O)(=O)N(Cc1ccc(OC(F)(F)F)cc1)c1ncc2ccccc2c1C1CC1 [Example 38, 4-({(4-cyclopropylisoquinolin-3-yl)[4-(trifluoromethoxy)benzyl]amino}sulfonyl)-3-methylbenzoic acid] | 0.7 nmol/L
COCc1cc(S(=O)(=O)N(Cc2ccc(OC(F)(F)F)cc2)c2ncc3ccccc3c2C2CC2)ccc1C(=O)O [Example 39, 4-({(4-cyclopropylisoquinolin-3-yl)[4-(trifluoromethoxy)benzyl]amino}sulfonyl)-2-(methoxymethyl)benzoic acid] | 1.4 nmol/L
Cc1cc(S(=O)(=O)N(Cc2ccc(OC(F)(F)F)cc2)c2nc(C3CC3)c3ccccc3c2C)ccc1C(=O)O [Example 40, 4-({(1-cyclopropyl-4-methylisoquinolin-3-yl)[4-(trifluoromethoxy)benzyl]amino}sulfonyl)-2-methylbenzoic acid] | 6.5 nmol/L
CNc1cc(S(=O)(=O)N(Cc2ccc(OC(F)(F)F)cc2)c2ncc3ccccc3c2C2CC2)ccc1C(=O)O [Example 41, 4-({(4-cyclopropylisoquinolin-3-yl)[4-(trifluoromethoxy)benzyl]amino}sulfonyl)-2-(methylamino)benzoic acid] | 1.1 nmol/L
O=C(O)c1ccc(S(=O)(=O)N(Cc2ccc(OC(F)(F)F)cc2)c2ncc3ccccc3c2C2CC2)cc1C1CC1 [Example 43] | 10.1 nmol/L
CC(C)c1cc(S(=O)(=O)N(Cc2ccc(OC(F)(F)F)cc2)c2ncc3ccccc3c2C2CC2)ccc1C(=O)O [Example 44] | 5.6 nmol/L
O=C(O)c1ccc(S(=O)(=O)N(Cc2ccc(OC(F)(F)F)cc2)c2ncc3ccccc3c2C2CC2)cc1Cl [Example 47] | 3.8 nmol/L
O=C(O)c1ccc(S(=O)(=O)N(Cc2ccc(OC(F)(F)F)cc2)c2ncc3ccccc3c2C2CC2)cc1C(F)(F)F [Example 49] | 18.1 nmol/L
O=C(O)c1ccc(S(=O)(=O)N(Cc2ccc(OC(F)(F)F)cc2)c2ncc3ccccc3c2C2CC2)cc1-c1ccccc1 [Example 55] | 13.6 nmol/L

The remaining compounds from weak to strong by IC50, led by results:

IC50 | SMILES
19.6 nmol/L | O=C(O)c1ccc(S(=O)(=O)N(Cc2ccc(OC(F)(F)F)cc2)c2ncc3ccccc3c2C2CC2)cc1N1CCOCC1 [Example 60]
11.7 nmol/L | COc1cc(S(=O)(=O)N(Cc2ccc(OC(F)(F)F)cc2)c2ncc3ccccc3c2C2CC2)ccc1C(=O)O [Example 50]
10.9 nmol/L | Cc1cc(S(=O)(=O)N(Cc2ccc(OC(F)(F)F)cc2)c2ncc3ccccc3c2C2CC2)cc(C)c1C(=O)O [Example 51]
10.3 nmol/L | O=C(O)c1ccc(S(=O)(=O)N(Cc2ccc(OC(F)(F)F)cc2)c2ncc3ccccc3c2C2CC2)cc1N1CCCCC1 [Example 59]
6.6 nmol/L | CC(C)c1cc(S(=O)(=O)N(Cc2ccc(OC(F)(F)F)cc2)c2ncc3ccccc3c2C(F)(F)F)ccc1C(=O)O [Example 56]
6.3 nmol/L | O=C(O)c1ccc(S(=O)(=O)N(Cc2ccc(OC(F)(F)F)cc2)c2ncc3ccccc3c2C2CC2)cc1Br [Example 48]
4.6 nmol/L | O=C(O)c1ccc(S(=O)(=O)N(Cc2ccc(OC(F)(F)F)cc2)c2ncc3ccccc3c2C2CC2)cc1N1CCCC1 [Example 58]
3.3 nmol/L | Cc1cc(S(=O)(=O)N(Cc2ccc(OC(F)(F)F)cc2)c2ncc3ccccc3c2C(F)(F)F)ccc1C(=O)O [Example 46]
3 nmol/L | CCc1cc(S(=O)(=O)N(Cc2ccc(OC(F)(F)F)cc2)c2ncc3ccccc3c2C(F)(F)F)ccc1C(=O)O [Example 53]
2.9 nmol/L | CN(C)c1cc(S(=O)(=O)N(Cc2ccc(OC(F)(F)F)cc2)c2ncc3ccccc3c2C2CC2)ccc1C(=O)O [Example 45]
2.5 nmol/L | CCCc1cc(S(=O)(=O)N(Cc2ccc(OC(F)(F)F)cc2)c2ncc3ccccc3c2C2CC2)ccc1C(=O)O [Example 57]
2.1 nmol/L | CCc1cc(S(=O)(=O)N(Cc2ccc(OC(F)(F)F)cc2)c2ncc3ccccc3c2C2CC2)ccc1C(=O)O [Example 54]
1.5 nmol/L | Cc1cc(S(=O)(=O)N(Cc2ccc(OC(F)(F)F)cc2)c2ncc3ccccc3c2C2CC2)cc(F)c1C(=O)O [Example 42]
1.4 nmol/L | Cc1cc(S(=O)(=O)N(Cc2ccc(OC(F)(F)F)cc2)c2ncc3ccccc3c2C2CC2)ccc1C(=O)O [Example 36, 4-({(4-cyclopropylisoquinolin-3-yl)[4-(trifluoromethoxy)benzyl]amino}sulfonyl)-2-methylbenzoic acid]
1 nmol/L | O=C(O)c1ccc(S(=O)(=O)N(Cc2ccc(OC(F)(F)F)cc2)c2ncc3ccccc3c2C2CC2)cc1F [Example 52]

From patent US9487488B2, “Sulfonamide compound” (MITSUBISHI TANABE PHARMA CORPORATION, priority 2012, dated 2016)
